This is an account of results in ChEMBL document CHEMBL1146042, “Identification of metabolites of the tryptase inhibitor CRA-9249: observation of a metabolite derived from an unexpected hydroxylation pathway” (Bioorg Med Chem Lett, 2006).

One data set concerns the target Tryptase (Homo sapiens, UniProt Q9BZJ3+Q15661+Q9NRR2). Put plainly: Inhibition of mast cell tryptase. Format: protein assay.
The species named for the next data set is Macaca fascicularis. Put plainly: Stability in cynomolgus monkey liver microsome after 3 hrs. The note with it: liver microsomes. Background: Liver microsomes are a subcellular fraction often used to study metabolism.
The nature of data set [1]: Stability in dog liver microsome after 3 hrs. In kind it is ADME, Canis lupus familiaris. The conditions noted are these: liver microsomes, read-out: Stability.
A short description of data set [2]: Stability in mouse liver microsome after 3 hrs. Format: ADME. The conditions noted are these: liver microsomes, read-out: Stability.
The nature of data set [3]: Stability in human liver microsome after 3 hrs. Format: ADME. The conditions noted are these: liver microsomes, read-out: Stability.
Data set [4] is described as follows: Stability in rat liver microsome after 3 hrs. In kind it is ADME. The note with it: liver microsomes, read-out: Stability.

The term Ki denotes the equilibrium dissociation constant of an inhibitor or competing ligand from its target.

On Tryptase, `Cn1c(C(F)(F)c2nc3c(F)cc(F)cc3[nH]2)nc2ccc(C(=O)NC(O)COc3ccc(F)cc3)cc21` (stereo unspecified) registered a Ki of 0.024 µM. Take `Cn1c(C(F)(F)c2nc3c(F)cc(F)cc3[nH]2)nc2ccc(C(=O)NCCOc3ccc(F)cc3)cc21`: the remaining at 3 h in the data set filed under Macaca fascicularis was less than 10%; in data set [1], less than 10%; in data set [2], less than 10%; in data set [3] it was less than 10%; in data set [4], 56%. Moreover, the Ki at Tryptase turned out to be 0.3 µM. For `Cn1c(C(F)(F)c2nc3c(F)c(O)c(F)cc3[nH]2)nc2ccc(C(=O)NCCOc3ccc(F)cc3)cc21`, the Ki on Tryptase was found to be 1.4 µM. `Cn1c(C(F)(F)c2nc3c(F)cc(F)cc3[nH]2)nc2ccc(C(N)=O)cc21` registered a Ki on Tryptase of 2.7 µM. For the molecule `Cn1c(C(F)(F)c2nc3c(F)cc(F)cc3[nH]2)nc2ccc(C(=O)NCCO)cc21`, the Ki at Tryptase was found to be 7 µM.

In the case of `Cn1c(C(F)(F)c2nc3c(F)cc(F)c(O)c3[nH]2)nc2ccc(C(=O)NCCOc3ccc(F)cc3)cc21`, the Ki on Tryptase is 0.034 µM.
